± gives the expanded uncertainty stated by the source.
Details: Liquid, Ebulliometric method (Recirculating still)

Row | SMILES | vapor or sublimation pressure (353.15 K) [kPa] | vapor or sublimation pressure (333.15 K) [kPa] | vapor or sublimation pressure (373.15 K) [kPa]
1 | CCC(C)(C)OC [2-methoxy-2-methylbutane] | 86.7 ± 3.1 | – | –
2 | COC(C)(C)C [2-methoxy-2-methylpropane] | – | 120.4 ± 3.2 | –
3 | CN1CCCC1=O [N-methylpyrrolidone] | 1.3 | 0.5 | 3.6 ± 3
4 | CCCOCCC [dipropyl ether] | 74.1 ± 3.1 | – | 135.5 ± 3.1
